Key:
Assay in all cases: relative viability (nuclei count vs DMSO), 5 days (fraction); higher = more cells survive
Carfilzomib + Navitoclax = compound: CC(C)C[C@H](NC(=O)[C@H](CCc1ccccc1)NC(=O)CN1CCOCC1)C(=O)N[C@@H](Cc1ccccc1)C(=O)N[C@@H](CC(C)C)C(=O)[C@@]1(C)CO1 [Carfilzomib] + CC1(C)CCC(c2ccc(Cl)cc2)=C(CN2CCN(c3ccc(C(=O)NS(=O)(=O)c4ccc(N[C@H](CCN5CCOCC5)CSc5ccccc5)c(S(=O)(=O)C(F)(F)F)c4)cc3)CC2)C1 [Navitoclax] (partner 0.5 µM)
How it was run: (§1)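 Lung cancer cell lines were pin-tool dosed in 1536-well plates on the day after seeding, with either a lone drug or a fixed anchor-drug dose plus five library-drug doses (not always all listed) in √10 steps. Nuclei were counted on 4× images after 5 days. Relative viability is the ratio of treated-well to vehicle-well nuclei counts, with each value a median of duplicate plates.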

Carfilzomib + Decitabine = compound: CC(C)C[C@H](NC(=O)[C@H](CCc1ccccc1)NC(=O)CN1CCOCC1)C(=O)N[C@@H](Cc1ccccc1)C(=O)N[C@@H](CC(C)C)C(=O)[C@@]1(C)CO1 [Carfilzomib] + Nc1ncn([C@H]2C[C@H](O)[C@@H](CO)O2)c(=O)n1 [Decitabine] (partner 2 µM)
How it was run: as §1

Crizotinib + Lapatinib = compound: C[C@@H](Oc1cc(-c2cnn(C3CCNCC3)c2)cnc1N)c1c(Cl)ccc(F)c1Cl [Crizotinib] + CS(=O)(=O)CCNCc1ccc(-c2ccc3ncnc(Nc4ccc(OCc5cccc(F)c5)c(Cl)c4)c3c2)o1 [Lapatinib] (partner 2 µM)
How it was run: as §1

Olaparib + Navitoclax = compound: O=C(c1cc(Cc2n[nH]c(=O)c3ccccc23)ccc1F)N1CCN(C(=O)C2CC2)CC1 [Olaparib] + CC1(C)CCC(c2ccc(Cl)cc2)=C(CN2CCN(c3ccc(C(=O)NS(=O)(=O)c4ccc(N[C@H](CCN5CCOCC5)CSc5ccccc5)c(S(=O)(=O)C(F)(F)F)c4)cc3)CC2)C1 [Navitoclax] (partner 0.5 µM)
How it was run: as §1

Cell Line | relative viability (Carfilzomib + Navitoclax; first compound 0.001 µM) | relative viability (Carfilzomib + Navitoclax; first compound 0.003162 µM) | relative viability (Carfilzomib + Navitoclax; first compound 0.01 µM) | relative viability (Carfilzomib + Navitoclax; first compound 0.03162 µM) | relative viability (Carfilzomib + Navitoclax; first compound 0.1 µM) | relative viability (Carfilzomib + Decitabine; first compound 0.001 µM) | relative viability (Carfilzomib + Decitabine; first compound 0.003162 µM) | relative viability (Carfilzomib + Decitabine; first compound 0.01 µM) | relative viability (Carfilzomib + Decitabine; first compound 0.03162 µM) | relative viability (Carfilzomib + Decitabine; first compound 0.1 µM) | relative viability (Crizotinib + Lapatinib; first compound 0.01 µM) | relative viability (Crizotinib + Lapatinib; first compound 0.03162 µM) | relative viability (Crizotinib + Lapatinib; first compound 0.1 µM) | relative viability (Crizotinib + Lapatinib; first compound 1 µM) | relative viability (Olaparib + Navitoclax; first compound 0.08 µM) | relative viability (Olaparib + Navitoclax; first compound 0.253 µM) | relative viability (Olaparib + Navitoclax; first compound 2.53 µM) | relative viability (Olaparib + Navitoclax; first compound 8 µM) | relative viability (Crizotinib + Lapatinib; first compound 0.3162 µM)
LCLC-97TM1 | 0.285 | 0.47 | 0.478 | 0.171 | 0.128 | 0.234 | 0.283 | 0.226 | 0.115 | 0.0656 | 1.08 | 0.927 | 1.04 | 1.12 | 0.528 | 0.259 | 0.346 | 0.405 | –
NCI-H1915 | 0.717 | 0.785 | 0.762 | 0.438 | 0.0486 | 0.257 | 0.296 | 0.24 | 0.259 | 0.106 | 0.902 | 0.95 | 1.01 | 0.969 | 0.721 | 0.725 | 0.739 | 0.486 | –
LOU-NH91 | 0.703 | 0.832 | 0.42 | 0.19 | 0.204 | 0.823 | 0.864 | 0.852 | 0.413 | 0.389 | 0.738 | 0.731 | 0.677 | 0.712 | 0.757 | 0.642 | 0.725 | 0.618 | 0.57
EKVX | 0.992 | 1 | 1.21 | 0.427 | 0.346 | 0.371 | 0.36 | 0.335 | – | 0.128 | 0.218 | 0.191 | 0.175 | 0.186 | 1.1 | 0.876 | 0.97 | 0.944 | 0.186
SK-LU-1 | 0.77 | 0.896 | 0.286 | 0.0872 | 0.0846 | 0.591 | 0.713 | 0.625 | 0.262 | 0.23 | 0.833 | 0.953 | 0.859 | – | 0.941 | 0.785 | 0.749 | 0.409 | 0.889
A549 | 1.17 | 1.21 | 1.24 | 0.0372 | 0.0397 | 0.167 | 0.292 | 0.109 | 0.254 | 0.0302 | 0.996 | 1.06 | 1.03 | 1.05 | 1.33 | 0.991 | 0.81 | 0.597 | –
LXF-289 | 0.915 | 0.974 | 0.935 | 0.0853 | 0.0461 | 0.368 | 0.399 | 0.375 | 0.162 | 0.0931 | 0.902 | 0.886 | 0.925 | 0.872 | 1.03 | 0.9 | 1.02 | 0.96 | 0.779
NCI-H2009 | 1.24 | 1.2 | 1.15 | 0.993 | 0.0572 | 0.401 | 0.391 | 0.401 | 0.268 | 0.0605 | 0.845 | 0.984 | 0.956 | 0.93 | 1.31 | 1.05 | 1.1 | 0.996 | 0.812
HCC-827 | 0.983 | 1.05 | 1.03 | 0.907 | 0.369 | 0.287 | 0.371 | 0.31 | 0.269 | 0.133 | 0.153 | 0.211 | 0.178 | 0.18 | 0.979 | 0.933 | 0.978 | 0.855 | 0.175
NCI-H3122 | 1.03 | 1.07 | 1.05 | 0.992 | 0.672 | 0.451 | 0.441 | 0.421 | 0.462 | 0.216 | 0.985 | 0.891 | 0.951 | 0.763 | 0.948 | 0.976 | 0.964 | 0.86 | 0.962
NCI-H2126 | 0.826 | 0.884 | 0.871 | 0.865 | 0.592 | 0.627 | 0.625 | 0.552 | 0.597 | 0.555 | 0.701 | 0.763 | 0.765 | 0.727 | 0.875 | 0.824 | 0.749 | 0.853 | 0.763
HARA | 1.1 | 1.14 | 1.21 | 0.0941 | 0.0841 | 0.669 | 0.747 | 0.704 | 0.192 | 0.119 | 0.662 | 0.699 | 0.636 | 0.667 | 1.14 | 1.08 | 1.04 | 0.99 | 0.824
LC-2-ad | 0.568 | 0.452 | 0.407 | 0.227 | 0.135 | 0.878 | 0.811 | 0.75 | 0.861 | 0.557 | 0.866 | 0.981 | 1.03 | 0.54 | 0.529 | 0.431 | 0.365 | 0.316 | –
UMC-11 | 0.278 | 0.326 | 0.332 | 0.269 | 0.103 | 0.603 | 0.609 | 0.54 | 0.819 | 0.459 | – | 0.975 | 1.02 | 0.668 | 0.398 | 0.321 | 0.259 | 0.207 | –
EMC-BAC-2 | 1.15 | 1.21 | 1.22 | 1.12 | 0.527 | 1 | 1.02 | 0.954 | 0.911 | 0.296 | 0.852 | 0.897 | 0.911 | 0.887 | 1.37 | 1.1 | 0.999 | 1.01 | 0.749
COR-L 105 | 0.885 | 0.628 | 0.643 | 0.353 | 0.298 | 0.621 | 0.752 | 0.751 | 0.466 | 0.34 | 0.345 | 0.38 | 0.373 | 0.374 | 0.781 | 0.822 | 0.574 | 0.48 | 0.32

Source: the supplement of paper PMC10307832
